The structures appear in SMILES notation.

Assay [1] deals with T1, Acetylcholinesterase (Electrophorus electricus, UniProt O42275). Kind of assay: Inhibition of electric eel AChE using acetylthiocholine iodide as substrate measured for 6 mins by Ellman's method.
Assay [2] has as its target Cholinesterase (Equus caballus, UniProt P81908). Description: Inhibition of equine serum BuChE using butyrylthiocholine iodide as substrate measured for 6 mins by Ellman's method.
Assay [3] is described as follows: Selectivity index, ratio of IC50 for equine serum BuChE to IC50 for electric eel AChE.
Assay [4] deals with PC-12. Description: Neuroprotective activity against H2O2-induced cell death in rat PC12 cells assessed as cell viability 10 uM pretreated for three hours followed by H2O2 induction after 12 hrs by MTT assay relative to control. Type of assay: functional.
Assay [5] concerns the target T1, Acetylcholinesterase. Kind of assay: Mixed-type inhibition of electric eel AChE using varying levels of acetylthiocholine iodide as substrate measured for 2 mins by Lineweaver-Burk plot analysis.
The target of assay [6] is Beta-secretase 1 (Homo sapiens) (UniProt P56817). Kind of assay: Inhibition of human BACE1 using Rh-EVNLDAEFK-quencher as substrate measured after 60 mins by FRET assay.
Sequence of Beta-secretase 1 (Homo sapiens) (P56817 whole entry): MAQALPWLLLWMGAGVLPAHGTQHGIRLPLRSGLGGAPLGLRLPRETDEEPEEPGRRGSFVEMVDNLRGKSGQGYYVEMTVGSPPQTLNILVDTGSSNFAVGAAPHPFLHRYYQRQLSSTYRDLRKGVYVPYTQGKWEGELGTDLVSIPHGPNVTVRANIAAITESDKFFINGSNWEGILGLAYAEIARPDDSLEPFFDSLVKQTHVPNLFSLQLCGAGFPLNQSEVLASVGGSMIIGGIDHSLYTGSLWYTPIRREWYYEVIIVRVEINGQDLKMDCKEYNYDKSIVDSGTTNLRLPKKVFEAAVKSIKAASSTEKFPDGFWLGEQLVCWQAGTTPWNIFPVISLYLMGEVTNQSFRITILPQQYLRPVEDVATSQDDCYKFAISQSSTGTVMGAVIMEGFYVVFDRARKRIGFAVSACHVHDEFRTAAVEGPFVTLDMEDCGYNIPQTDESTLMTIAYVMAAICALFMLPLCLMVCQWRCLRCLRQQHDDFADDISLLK

T1 sequence (O42275 whole entry): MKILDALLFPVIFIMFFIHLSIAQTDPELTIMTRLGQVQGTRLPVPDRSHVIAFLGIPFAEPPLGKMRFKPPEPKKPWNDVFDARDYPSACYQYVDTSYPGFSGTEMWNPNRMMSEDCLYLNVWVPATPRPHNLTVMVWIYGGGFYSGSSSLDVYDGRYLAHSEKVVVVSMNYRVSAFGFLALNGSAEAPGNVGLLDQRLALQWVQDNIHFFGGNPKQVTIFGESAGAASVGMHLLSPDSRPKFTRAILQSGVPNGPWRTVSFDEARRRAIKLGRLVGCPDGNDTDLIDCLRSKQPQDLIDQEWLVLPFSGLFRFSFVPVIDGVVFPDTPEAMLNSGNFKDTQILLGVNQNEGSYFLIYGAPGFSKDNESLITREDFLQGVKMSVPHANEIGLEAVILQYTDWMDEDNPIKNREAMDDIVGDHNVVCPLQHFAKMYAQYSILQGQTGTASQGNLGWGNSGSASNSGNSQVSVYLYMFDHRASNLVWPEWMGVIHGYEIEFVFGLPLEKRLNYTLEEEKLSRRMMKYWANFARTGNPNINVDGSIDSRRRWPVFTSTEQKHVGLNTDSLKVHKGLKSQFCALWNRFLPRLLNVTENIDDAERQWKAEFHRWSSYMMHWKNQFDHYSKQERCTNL
Sequence of Cholinesterase (P81908 whole entry): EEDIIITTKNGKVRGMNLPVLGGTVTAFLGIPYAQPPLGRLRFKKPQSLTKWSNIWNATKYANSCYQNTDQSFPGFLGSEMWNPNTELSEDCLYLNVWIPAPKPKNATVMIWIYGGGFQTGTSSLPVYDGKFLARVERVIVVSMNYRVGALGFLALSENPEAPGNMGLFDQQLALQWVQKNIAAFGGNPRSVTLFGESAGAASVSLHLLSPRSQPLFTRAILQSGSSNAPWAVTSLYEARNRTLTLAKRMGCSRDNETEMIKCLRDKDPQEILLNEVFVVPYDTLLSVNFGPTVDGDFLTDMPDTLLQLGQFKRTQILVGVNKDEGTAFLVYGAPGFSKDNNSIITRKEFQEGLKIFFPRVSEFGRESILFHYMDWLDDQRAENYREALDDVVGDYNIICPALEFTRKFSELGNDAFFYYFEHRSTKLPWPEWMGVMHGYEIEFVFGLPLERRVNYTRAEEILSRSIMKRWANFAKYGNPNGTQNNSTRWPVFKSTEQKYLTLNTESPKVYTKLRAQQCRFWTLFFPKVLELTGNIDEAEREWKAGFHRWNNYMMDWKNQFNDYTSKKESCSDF

Regarding `COc1ccc(C2C(C#N)=C(NC(=O)CN3CCN(c4ccccc4)CC3)Oc3c2c(=O)oc2ccccc32)cc1OC` (configuration not stated), the values for the IC50 in assay [1] (read-out: IC50) and in assay [2] (read-out: IC50) were 1.42 µM and 58.2 µM, respectively. Further, the Ratio IC50 in assay [3] was 41. Also, the Activity in assay [4] was found to be 76%.

Take `N#CC1=C(NC(=O)CN2CCN(c3ccccc3)CC2)Oc2c(c(=O)oc3ccccc23)C1c1ccc([N+](=O)[O-])cc1` (configuration not stated): the 50% inhibitory concentration (IC50) entry in assay [1] and in assay [2] was “Nd(Insoluble)” throughout.

`N#CC1=C(NC(=O)CN2CCN(c3ccccc3)CC2)Oc2c(c(=O)oc3ccccc23)C1c1ccc(Cl)cc1` (configuration not stated): the figures for the half-maximal inhibitory concentration (IC50) in assay [1] (read-out: IC50) and in assay [2] (read-out: IC50) were 6.33 µM and 89.2 µM, respectively. The Ratio IC50 in assay [3] came out at 14.1. Besides, the Activity in assay [4] turned out to be 75%.

Turning to `COc1ccc(C2C(C#N)=C(NC(=O)CN3CCN(c4ccccc4)CC3)Oc3c2c(=O)oc2ccccc32)c(OC)c1` (configuration not stated), the half-maximal inhibitory concentration (IC50) is 31.4 µM in assay [1] (read-out: IC50) and more than 100 µM in assay [2] (read-out: IC50).

Turning to `COc1ccc(C2C(C#N)=C(NC(=O)CN3CCOCC3)Oc3c2c(=O)oc2ccccc32)cc1` (configuration not stated), the figures for the half-maximal inhibitory concentration (IC50) in assay [1] (read-out: IC50) and in assay [2] (read-out: IC50) were 2.05 µM and 63.8 µM, respectively. The Ratio IC50 in assay [3] was found to be 31.1. Also, the Activity in assay [4] was found to be 78.5%.

`N#CC1=C(NC(=O)CN2CCN(c3ccccc3)CC2)Oc2c(c(=O)oc3ccccc23)C1c1ccccc1` (configuration not stated): the values for the IC50 in assay [1] (read-out: IC50) and in assay [2] (read-out: IC50) were 11.5 µM and 52.3 µM, respectively. The Ratio IC50 in assay [3] was 4.5.

Take `N#CC1=C(NC(=O)CN2CCOCC2)Oc2c(c(=O)oc3ccccc23)C1c1cccs1` (configuration not stated): the IC50 in assay [1] (read-out: IC50) and in assay [2] (read-out: IC50) was more than 100 µM in each case.

Take `COc1ccc(C2C(C#N)=C(NC(=O)CN3CCOCC3)Oc3c2c(=O)oc2ccccc32)cc1OC` (configuration not stated): the IC50 in assay [1] (read-out: IC50) came to 3.25 µM; in assay [2] (read-out: IC50) it was 34.2 µM. For the same molecule, in assay [3], the Ratio IC50 is 10.5. The Activity in assay [4] is reported as 84.7%.

In the case of `N#CC1=C(NC(=O)CN2CCN(c3ccccc3)CC2)Oc2c(c(=O)oc3ccccc23)C1c1ccc(F)cc1` (configuration not stated), the IC50 result in assay [1] and in assay [2] was “Nd(Insoluble)” each time.

For `Cc1ccc(C2C(C#N)=C(NC(=O)CN3CCN(c4ccccc4)CC3)Oc3c2c(=O)oc2ccccc32)c(C)c1` (configuration not stated), the IC50 was 32.9 µM in assay [1] (read-out: IC50) and more than 100 µM in assay [2] (read-out: IC50).

In the case of `N#CC1=C(NC(=O)CN2CCOCC2)Oc2c(c(=O)oc3ccccc23)C1c1ccccc1` (configuration not stated), the half-maximal inhibitory concentration (IC50) came to 23.9 µM in assay [1] (read-out: IC50) and 88.4 µM in assay [2] (read-out: IC50). The Ratio IC50 in assay [3] came to 3.7.

`N#CC1=C(NC(=O)CN2CCOCC2)Oc2c(c(=O)oc3ccccc23)C1c1ccc(Cl)cc1` (configuration not stated): the concentration for half-maximal inhibition (IC50) in assay [1] (read-out: IC50) worked out at 14.6 µM; in assay [2] (read-out: IC50) it was 91.5 µM. Besides, the Ratio IC50 in assay [3] is 6.3.

For the molecule `COc1ccc(C2C(C#N)=C(NC(=O)CN3CCOCC3)Oc3c2c(=O)oc2ccccc32)c(OC)c1` (configuration not stated), the values for the half-inhibitory concentration (IC50) in assay [1] (read-out: IC50) and in assay [2] (read-out: IC50) were 25.6 µM and more than 100 µM, respectively.

For the molecule `COc1ccc(C2C(C#N)=C(NC(=O)CN3CCN(c4ccccc4)CC3)Oc3c2c(=O)oc2ccccc32)cc1` (configuration not stated), the half-inhibitory concentration (IC50) in assay [1] (read-out: IC50) came out at 1.12 µM; in assay [2] (read-out: IC50) it was 45.7 µM. Moreover, the Ratio IC50 in assay [3] came to 40.8. The affinity in assay [5], expressed as Ki, was 3.19 µM. The Activity in assay [4] turned out to be 84.7%. Also, the inhibition in assay [6] was determined as 18%.

Take `N#CC1=C(NC(=O)CN2CCOCC2)Oc2c(c(=O)oc3ccccc23)C1c1ccc(F)cc1` (configuration not stated): the half-maximal inhibitory concentration (IC50) in assay [1] (read-out: IC50) and in assay [2] (read-out: IC50) was more than 100 µM in each case.

As to `N#CC1=C(NC(=O)CN2CCOCC2)Oc2c(c(=O)oc3ccccc23)C1c1ccc([N+](=O)[O-])cc1` (configuration not stated), the IC50 in assay [1] (read-out: IC50) and in assay [2] (read-out: IC50) was more than 100 µM each time.
